The subject of this test is wild-type H99 strain. The experiment in a line: Proteasome inhibitor / SDS sensitivity growth assay. In kind it is cell-based, Cryptococcus neoformans. The settings on record: for growth of wild type and complemented strain with SDS and proteasome inhibitor: YPD with 0.025% SDS plus inhibitor. The protocol: For SDS sensitivity testing, SDS was added to YPD to a final concentration of 0.2% (wt/vol), and 2× serial dilutions were prepared in 96-well plates. Cells of H99, the fbp1Δ mutant, and its complemented strain were added to the wells to a final optical density at 600 nm (OD600) of 0.01. The plates were kept at 30° C., and the OD600 was measured every 24 h. […] Twofold serial dilutions were prepared in 96-well plates. The wild-type H99 strain was added to the well containing proteasome inhibitors (MG132 or […]) and SDS to a final OD600 of 0.01. The fbp1Δ mutant was added to YPD with 0.025% SDS only to a final OD600 of 0.01. The growth of cultures was determined by measuring the OD600 every 24 h.
To test whether SDS sensitivity is regulated by the SCF(Fbp1) E3 ligase function, the effects of proteasome inhibitors on Cryptococcus SDS sensitivity was investigated. Fungal growth rates of the wild-type H99 strain, the fp1Δ mutant, and its complemented strain on YPD medium containing 0.025% SDS were determined in the absence or presence of the proteasome inhibitor MG132 or PS-341. MG132 is a cell-permeative proteasome inhibitor which can reduce the degradation of ubiquitin-conjugated proteins by the 26S complex without affecting its ATPase or isopeptidase activity. PS-341 is a potent and reversible proteasome inhibitor that functions to […]. […] Therefore, without wishing to be bound by theory, certain substrates of Fbp1 may also participate in regulation of cell membrane integrity.

Peptide text beside a SMILES is read from it. * marks the point of attachment. Cbz = O=C(OCc1ccccc1)*

Consider `CC(C)C[C@@H](C=O)NC(=O)[C@H](CC(C)C)NC(=O)[C@H](CC(C)C)NC(=O)OCc1ccccc1` [MG132] (Cbz-Leu-Leu-Leu-aldehyde), for which the “growth of wild type and complemented strain with SDS and proteasome inhibitor” value was “significant growth defect”. Also, the “effect on growth of the wild-type strain or the mutant, inhibitor alone” value (25 μM MG132, YPD without SDS) is “Neither 25 μM MG132 nor 100 μM PS-341 alone affected the growth”.
On to `CC(C)C[C@H](NC(=O)[C@H](Cc1ccccc1)NC(=O)c1cnccn1)B(O)O` [PS-341], for which the “growth of wild type and complemented strain with SDS and proteasome inhibitor” value is “significant growth defect”. Further, the “effect on growth of the wild-type strain or the mutant, inhibitor alone” value (100 μM PS-341, YPD without SDS) is “Neither 25 μM MG132 nor 100 μM PS-341 alone affected the growth”.

The values are drawn from US12115213B2, “Methods of treating fungal infections” (priority 2016, dated 2024).
